Test results from US20240350402A1, “TOPICAL DRUG TREATMENT TO PREVENT OR REDUCE CORNEAL SCARRING” (The Cleveland Clinic Foundation, priority 2021, published 2024).

Experiments:
[1] = tested on: myofibroblast marker α-SMA; experiment: -9D PRK model: IHC stromal α-SMA pixels (ImageJ); assay type: in vivo, rabbit; settings: topical 0.8 mg/ml losartan six times a day, one month
Method: (§1) Animal procedures were approved by the Institutional Animal Care and Use Committee at the Cleveland Clinic Foundation and animals were treated in accordance with the tenets of the Association for Research in Vision and Ophthalmology Statement for the Use of Animals in Ophthalmic and Vision Research. Twelve female 12- to 15-week-old New Zealand white rabbits weighing 2.5 to 3 kg each were included. Starting 24 hours prior to surgery and continuing 5 days after PRK, all rabbits received 60 mL children's liquid acetaminophen (Johnson & Johnson, Ft. Washington, PA, USA) per 1 L of drinking water. One eye of each rabbit was randomly selected to have −9.0 D (on myopia scale) PRK and received 2 drops of topical 1% proparacaine hydrochloride (Alcon, Fort Worth, TX, USA) prior to the surgery. […]
All images were converted to 300 DPI 900 pixel width×672 pixel height images with Photoshop 22.1.1 (Adobe, San Jose, CA). The mean pixels of stromal α-SMA or stromal collagen type IV were determined in a 900-pixel wide×235-pixel high rectangle (for either α-SMA or collagen type IV quantitation) with ImageJ in three sections for each cornea using the image panels showing only the color of interest. […]

TGF beta-1 = experiment: DMR model: IHC TGF beta-1 in posterior stroma; assay type: in vivo, rabbit; settings: topical and/or oral losartan, one month
Method: The rabbits had general anaesthesia with 30 mg/kg ketamine hydrochloride and 5 mg/kg xylazine by IM injection. In addition, topical proparacaine hydrochloride 1% (Alcon, Ft Worth, TX, USA) was applied to each eye prior to the surgery. One cornea selected at random in each group either had sham surgery without Descemetorhexis or an 8 mm diameter central Descemet's membrane-endothelial excision. The time point of one month after surgery was selected for the study because myofibroblasts and fibrosis in the posterior cornea was maximal at this time point in a prior time course Descemetorhexis study (Sampaio et al., 2021). Descemetorhexis was performed as described in the prior study (Sampaio et al., 2021). Briefly, a wire lid speculum was placed into one eye of each rabbit and an 8 mm diameter gentian violet circle was marked on the epithelial surface for reference. A limbal entry incision was created with a 1.6 mm blade (Bausch and Lomb, Rochester, NY, USA) and 0.3 ml Healon OVD (Abbott Medical Optics Inc. Santa Ana, CA, USA) was injected into the anterior chamber. A reversed Sinskey hook (Katena, Denville, New Jersey, USA) was placed into the anterior chamber and an 8 mm diameter disc of Descemet's membrane and endothelium was excised underlying the 8 mm area previously marked on the anterior corneal surface, without a subsequent endothelial corneal transplant. […]

[2] = tested on: rabbit corneas after -9D PRK; experiment: -9D PRK model: slit lamp central opacity (ImageJ); assay type: in vivo; settings: topical 0.8 mg/ml losartan six times a day, one month
Method: as §1
At 1 month after PRK and treatment, each rabbit was placed under ketamine-xylazine general anesthesia and the eyes were dilated with two drops of 1% tropicamide (Akorn Co., Lake Forest, IL, USA) for 30 minutes. […] For each study cornea, the mean opacity in pixels in the central 3.5 mm of the PRK ablated zone was determined by using ImageJ 1.53a analysis software (National Institutes of Health, Bethesda, MD, USA). […]

CCCCc1nc(Cl)c(CO)n1Cc1ccc(-c2ccccc2-c2nn[nH]n2)cc1 [losartan]
total pixels of α-SMA staining within the analyzed rectangle (mean±SEM) [1]: 120±60 pixels
levels of TGF beta-1 in the posterior stroma or at the posterior stromal surface compared to vehicle-treated corneas (TGF beta-1): No effect
mean pixels of opacity within the analyzed 3.5 mm diameter area (mean±SEM) [2]: 77±3 pixels
